This passage reports IC50 and MIC results from patent US20260365641A1, “Aromatic Acetylene Derivative, Preparation Method Therefor, And Use Thereof” (Zhejiang Hisun Pharmaceutical Co., Ltd., priority 2022, published 2026).

A word on the IC50: it is the concentration at which inhibition is half-maximal. For orientation: MIC means the lowest concentration that inhibits growth of the organism. Low values mean a more susceptible organism, high ones a less susceptible organism.

Assay [1] concerns the target T1, recombinant Pseudomonas aeruginosa LpxC (Pseudomonas aeruginosa, UniProt P47205).
T1 construct: purchased Signalway Antibody AP74647-2
T1 sequence (P47205 1-303): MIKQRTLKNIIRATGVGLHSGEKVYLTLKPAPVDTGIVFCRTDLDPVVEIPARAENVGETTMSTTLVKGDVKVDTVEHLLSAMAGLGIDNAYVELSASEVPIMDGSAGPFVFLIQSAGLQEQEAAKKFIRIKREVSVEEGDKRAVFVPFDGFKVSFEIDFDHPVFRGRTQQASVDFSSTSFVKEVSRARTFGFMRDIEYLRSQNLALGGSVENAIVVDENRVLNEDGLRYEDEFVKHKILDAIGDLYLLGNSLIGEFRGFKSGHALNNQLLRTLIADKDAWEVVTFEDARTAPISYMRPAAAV
In words: Inhibition of enzymatic activity of recombinant Pseudomonas aeruginosa LpxC in vitro. The conditions noted are these: 5 nM LpxC; substrate UDP-3-O—(R-3-hydroxydecanoyl)-GlcNAc; 25 °C, 120 minutes; fluorescamine readout. The format is biochemical. As to the method: The following method was used to determine degrees of inhibition of the compounds of the present invention on the enzymatic activity of recombinant Pseudomonas aeruginosa LpxC in vitro.
The test process was briefly described as follows: the tested compound was first dissolved in DMSO to prepare a 10 mM storage solution. The reaction was carried out in a 96-well microplate. Firstly, 20 μL of recombinant Pseudomonas aeruginosa LpxC (purchased from Signalway Antibody, article number AP74647-2) was added into the wells, and the final concentrations were 5 nM respectively. 5 μL of the compound to be tested was added, diluted in 4-fold, with 8 concentration points, and the concentration range was 0.61-10000 nM. 5 μL of LpxC substrate UDP-3-O—(R-3-hydroxydecanoyl)-GlcNAc (purchased from Biosynth Carbosynth, article number mu75071) was added, wherein a final concentration of the substrate was […], and the substrate was incubated at 25 °C for 120 minutes. Subsequently, 20 μL of 2.0 mg/mL fluorescamine (purchased from sigma aldrich, article number F9015, wherein a solvent was dimethylformamide/acetonitrile (1:1)) was added to the reaction system, mixed evenly and reacted for 10 minutes. Finally, 50 μL of 200 mM sodium phosphate buffer solution (pH 8.0) was added to stop the reaction, and a microplate reader (BMG) was used for reading. An excitation wavelength and an emission wavelength were 390 nm and 495 nm respectively. Compared with the fluorescence intensity ratio of a control group (0.1% DMSO), the percentage inhibition rates of the compounds at each concentration were calculated, and the IC50 values of the compounds were obtained by performing nonlinear regression analysis with logarithmic value of the compound concentration-inhibition rate by GraphPad Prism 5 software, which can be seen in Table 1.

Another assay has as its system E. coli ATCC 25922. The assay can be described thus: Antibacterial activity, minimum inhibitory concentration (MIC) in vitro, broth dilution. It counts as cell-based. Particulars: Escherichia coli, ATCC25922, 5×10^5 cfu/mL, 35 °C, 18-24 hours. As for the experimental part: (§1) The minimum inhibitory concentration (MIC) in vitro was determined according to CLSI's guidelines, and a minimal broth dilution method was used.
(§2) The test process was briefly described as follows: the tested compound was dissolved in DMSO to prepare a storage solution of […], and then prepared into 11 two-fold-diluted 100× high-concentration working liquids (a final concentration of the system was 64 μg/mL to 0.06 μg/mL) by DMSO. Stains (K. pneumoniae ATCC13883, K. pneumoniae ATCC51504 and E. coli ATCC 25922) frozen at −80 °C with glycerin were inoculated to a solid agar culture medium, placed into an incubator for culturing for 18-24 hours at 35 °C to finish the preparation work of the strains. A proper amount of solid plate culture was collected, re-suspended in normal saline, and uniformly mixed. The turbidity of the bacterial suspension was adjusted to a proper turbidity by a turbidity meter, containing about 1×10^8 cfu/mL of bacteria. Then, the turbidity-regulated bacterial suspension was diluted with a test culture medium (type: CAMHIIB, purchased from BD company) to a bacterial concentration of 5×10^5 cfu/mL, thus finishing the preparation of an inoculation solution. 198 μL of the inoculation solution was inoculated into a 96-well plate, and added with 2 μL 100× high concentration working liquid of the compound, then the 96-well plate was placed at 35 °C for culturing for 18-24 hours.

The test system of another assay is K. pneumoniae ATCC51504. Described as above. It counts as cell-based. Particulars: Klebsiella pneumoniae, 5×10^5 cfu/mL, 35 °C, 18-24 hours. As to the method:
as §1, §2

Values after ≈ are worked out from the molar mass of the structure shown.

On to `C[C@H](O)c1nccn1Cc1cc(-c2ccc(C#CC3CC4(CCNCC4)C3)cc2)on1` [Example 1, (S)-1-(1-((5-(4-((7-azaspiro[3.5]nonan-2-yl)ethynyl)phenyl)isoxazol-3-yl)methyl)-1H-imidazol-2-yl)ethan-1-ol], for which the IC50 in assay [1] was determined as 9.46 nM.

In the case of `C[C@H](O)c1nccn1Cc1cc(-c2ccc(C#CC3CC4(CCN(CCCC(=O)O)C4)C3)cc2)on1` (stereo partly drawn) [Example 4, (S)-4-(2-((4-(3-((2-(1-hydroxyethyl)-1H-imidazol-1-yl)methyl)isoxazol-5-yl)phenyl)ethynyl)-6-azaspiro[3.4]octan-6-yl)butanoic acid], in assay [1], the half-inhibitory concentration (IC50) was determined as 23.4 nM.

`C[C@H](O)c1nccn1Cc1cc(-c2ccc(C#CC3CC4(CCN(CCC(=O)O)CC4)C3)cc2)on1` [Example 5, (S)-3-(2-((4-(3-((2-(1-hydroxyethyl)-1H-imidazol-1-yl)methyl)isoxazol-5-yl)phenyl)ethynyl)-7-azaspiro[3.5]nonan-7-yl)propanoic acid]: the concentration for half-maximal inhibition (IC50) in assay [1] was determined as 7.03 nM.

For the compound `C[C@H](O)c1nccn1Cc1cc(-c2ccc(C#CC3CC4(CCN(CCCC(N)=O)CC4)C3)cc2)on1` [Example 8, (S)-4-(2-((4-(3-((2-(1-hydroxyethyl)-1H-imidazol-1-yl)methyl)isoxazol-5-yl)phenyl)ethynyl)-7-azaspiro[3.5]nonan-7-yl)butanamide], in assay [1], the 50% inhibitory concentration (IC50) came to 19.3 nM.

For `C[C@H](O)c1nccn1Cc1cc(-c2ccc(C#CC3CC4(CCN(CCC(N)=O)CC4)C3)cc2)on1` [Example 9, (S)-3-(2-((4-(3-((2-(1-hydroxyethyl)-1H-imidazol-1-yl)methyl)isoxazol-5-yl)phenyl)ethynyl)-7-azaspiro[3.5]nonan-7-yl)propanamide], the concentration for half-maximal inhibition (IC50) in assay [1] came to 18.8 nM.

As for `C[C@H](O)c1nccn1Cc1cc(-c2ccc(C#CC3CC4(CCN(CC(=O)O)CC4)C3)cc2)on1` [Example 10, (S)-2-(2-((4-(3-((2-(1-hydroxyethyl)-1H-imidazol-1-yl)methyl)isoxazol-5-yl)phenyl)ethynyl)-7-azaspiro[3.5]nonan-7-yl)acetic acid], the IC50 in assay [1] is 22.8 nM.

Turning to `C[C@H](O)c1nccn1Cc1cc(-c2ccc(C#CC3CC4(CCN(CCO)CC4)C3)cc2)on1` [Example 11, (S)-2-(2-((4-(3-((2-(1-hydroxyethyl)-1H-imidazol-1-yl)methyl)isoxazol-5-yl)phenyl)ethynyl)-7-azaspiro[3.5]nonan-7-yl)ethan-1-ol], in assay [1], the concentration for half-maximal inhibition (IC50) stood at 8.66 nM.

On to `C[C@H](O)c1nccn1Cc1cc(-c2ccc(C#CC3CC4(CCN(C(=O)CC(=O)O)CC4)C3)cc2)on1` [Example 14, (S)-3-(2-((4-(3-((2-(1-hydroxyethyl)-1H-imidazol-1-yl)methyl)isoxazol-5-yl)phenyl)ethynyl)-7-azaspiro[3.5]nonan-7-yl)-3-oxopropanoic acid], for which the IC50 in assay [1] came to 6.81 nM.

Turning to `C[C@H](O)c1nccn1Cc1cc(-c2ccc(C#CC3CC4(CCN(C(=O)CC(N)=O)CC4)C3)cc2)on1` [Example 15, (S)-3-(2-((4-(3-((2-(1-hydroxyethyl)-1H-imidazol-1-yl)methyl)isoxazol-5-yl)phenyl)ethynyl)-7-azaspiro[3.5]nonan-7-yl)-3-oxopropanamide], the IC50 in assay [1] was 4.42 nM.

With `C[C@H](O)c1nccn1Cc1cc(-c2ccc(C#CC3CC4(CCN(C(=O)CN)CC4)C3)cc2)on1` [Example 16, (S)-2-amino-1-(2-((4-(3-((2-(1-hydroxyethyl)-1H-imidazol-1-yl)methyl)isoxazol-5-yl)phenyl)ethynyl)-7-azaspiro[3.5]nonan-7-yl)ethan-1-one], the IC50 in assay [1] was found to be 10.3 nM.

As to `C[C@H](O)c1nccn1Cc1cc(-c2ccc(C#CC3CC4(CCN(C(=O)[C@@H](N)CO)CC4)C3)cc2)on1` [Example 18, (S)-2-amino-3-hydroxy-1-(2-((4-(3-((2-((S)-1-hydroxyethyl)-1H-imidazol-1-yl)methyl)isoxazol-5-yl)phenyl)ethynyl)-7-azaspiro[3.5]nonan-7-yl)propan-1-one], the IC50 in assay [1] turned out to be 4.42 nM.

`C[C@H](O)c1nccn1Cc1cc(-c2ccc(C#CC3CC4(CCN(C(N)=O)C4)C3)cc2)on1` (stereo partly drawn) [Example 24, (S)-2-((4-(3-((2-(1-hydroxyethyl)-1H-imidazol-1-yl)methyl)isoxazol-5-yl)phenyl)ethynyl)-6-azaspiro[3.4]octane-6-carboxamide]: in assay [1], the IC50 turned out to be 6.9 nM.

With `C[C@H](O)c1nccn1Cc1cc(-c2ccc(C#CC3CC4(CCN(C(=O)CO)C4)C3)cc2)on1` (stereo partly drawn) [Example 28, (S)-2-hydroxy-1-(2-((4-(3-((2-(1-hydroxyethyl)-1H-imidazol-1-yl)methyl)isoxazol-5-yl)phenyl)ethynyl)-6-azaspiro[3.4]octan-6-yl)ethan-1-one], in assay [1], the IC50 amounted to 14.1 nM.

In the case of `C[C@H](O)c1nccn1Cc1cc(-c2ccc(C#CC3CC4(CCN(C5CNC5)CC4)C3)cc2)on1` [Example 30, (S)-1-(1-((5-(4-((7-(azetidin-3-yl)-7-azaspiro[3.5]nonan-2-yl)ethynyl)phenyl)isoxazol-3-yl)methyl)-1H-imidazol-2-yl)ethan-1-ol], the IC50 in assay [1] came out at 16.2 nM.

Consider `C[C@H](O)c1nccn1Cc1cc(-c2ccc(C#CC3CC4(C3)CN(C(=O)CC#N)C4)cc2)on1` [Example 32, (S)-3-(6-((4-(3-((2-(1-hydroxyethyl)-1H-imidazol-1-yl)methyl)isoxazol-5-yl)phenyl)ethynyl)-2-azaspiro[3.3]heptan-2-yl)-3-oxopropanenitrile], for which the concentration for half-maximal inhibition (IC50) in assay [1] was 22.5 nM.

As for `C[C@H](O)c1nccn1Cc1cc(-c2ccc(C#CC3=CCN(C(=O)C4[C@H]5CCC[C@@H]45)CC3)cc2)on1` (stereo partly drawn) [Example 35, ((1R,5S)-bicyclo[3.1.0]hexan-6-yl)(4-((4-(3-((2-((S)-1-hydroxyethyl)-1H-imidazol-1-yl)methyl)isoxazol-5-yl)phenyl)ethynyl)-3,6-dihydropyridin-1(2H)-yl)methanone], the MIC in the assay on E. coli ATCC 25922 and against K. pneumoniae ATCC51504 was 2 µg/mL (≈ 4.14 µM) in each case.

For the compound `C[C@H](O)c1nccn1Cc1cc(-c2ccc(C#CC3CC4(C3)CN(Cc3ncc[nH]3)C4)cc2)on1` [Example 46, (S)-1-(1-((5-(4-((2-((1H-imidazol-2-yl)methyl)-2-azaspiro[3.3]heptan-6-yl)ethynyl)phenyl)isoxazol-3-yl)methyl)-1H-imidazol-2-yl)ethan-1-ol], in assay [1], the IC50 stood at 21.5 nM.

`C[C@H](O)c1nccn1Cc1cc(-c2ccc(C#CC3CC4(C3)CN(C(=O)NCCO)C4)cc2)on1` [Example 50, (S)-N-(2-hydroxyethyl)-6-((4-(3-((2-(1-hydroxyethyl)-1H-imidazol-1-yl)methyl)isoxazol-5-yl)phenyl)ethynyl)-2-azaspiro[3.3]heptane-2-carboxamide]: the IC50 in assay [1] was 23.5 nM.

Regarding `C[C@H](O)c1nccn1Cc1cc(-c2ccc(C#CC3CC4(C3)CN(C(=O)N3CCC(O)CC3)C4)cc2)on1` [Example 51, (S)-(6-((4-(3-((2-(1-hydroxyethyl)-1H-imidazol-1-yl)methyl)isoxazol-5-yl)phenyl)ethynyl)-2-azaspiro[3.3]heptan-2-yl)(4-hydroxypiperidin-1-yl)methanone], in assay [1], the half-inhibitory concentration (IC50) worked out at 15.1 nM.

On to `C[C@H](O)c1nccn1Cc1cc(-c2ccc(C#CC3CC4(C3)CN(C(=O)C3CCNC(=O)C3)C4)cc2)on1` (stereo partly drawn) [Example 54, 4-(6-((4-(3-((2-((S)-1-hydroxyethyl)-1H-imidazol-1-yl)methyl)isoxazol-5-yl)phenyl)ethynyl)-2-azaspiro[3.3]heptane-2-carbonyl)piperidin-2-one], for which the IC50 in assay [1] was determined as 15.5 nM.
